The values below come from PubChem BioAssay (NCI).

Test systems include RXF 393 renal; SK-MEL-2 melanoma; RPMI-8226 leukemia; HL-60(TB) leukemia; HOP-62 NSCLC; OVCAR-8 ovarian; UACC-257 melanoma; SW-620 colon; SK-MEL-5 melanoma; IGROV1 ovarian.
Common to all, as to assay: NCI-60 cell line screen, 48 h

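Growth conditions: 96-well plates. Treatment: test compound, 48 hours, 5 concentrations. Analysis: linear interpolation between bracketing concentrations; unreached endpoints set to highest concentration. GI50: concentration for 50% inhibition of growth. TGI is the concentration that stops growth completely.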

Regarding `O=c1[nH]cnc2n[nH]nc12`, the TGI with RXF 393 renal is 14.4 µM; in the experiment with SK-MEL-2 melanoma, 32 µM; in the experiment on RPMI-8226 leukemia it was over 65.9 µM; with HL-60(TB) leukemia, over 56.4 µM; in the experiment on HOP-62 NSCLC, over 100 µM; in the experiment on OVCAR-8 ovarian it was over 100 µM. Besides, the TGI with UACC-257 melanoma, in the experiment on SW-620 colon, in the experiment on SK-MEL-5 melanoma and in the experiment with IGROV1 ovarian was over 100 µM throughout.

As for `COc1cc2c(c(OC)c1OC)C(=O)NCCC2`, the TGI was over 100 µM in the experiment with RXF 393 renal; over 100 µM in the experiment on SK-MEL-2 melanoma; over 100 µM in the experiment with RPMI-8226 leukemia; over 63.1 µM in the experiment with HL-60(TB) leukemia; over 100 µM with HOP-62 NSCLC; over 100 µM with OVCAR-8 ovarian. Also, the TGI in the experiment on UACC-257 melanoma, in the experiment on SW-620 colon, with SK-MEL-5 melanoma and with IGROV1 ovarian was over 100 µM throughout.

Consider `COc1cc2c3c(n(CCCNCCCNCCCN)c(=O)c2cc1OC)-c1cc2c(cc1C3=O)OCO2`, for which the GI50 with RXF 393 renal, with SK-MEL-2 melanoma, in the experiment with RPMI-8226 leukemia, in the experiment on HL-60(TB) leukemia, with OVCAR-8 ovarian and with UACC-257 melanoma was over 100 µM in each case. Also, the values for the GI50 in the experiment with SW-620 colon, with SK-MEL-5 melanoma and in the experiment on IGROV1 ovarian were 82.5 µM, over 100 µM and over 100 µM, respectively. Moreover, the TGI in the experiment with RXF 393 renal, in the experiment with SK-MEL-2 melanoma, in the experiment on RPMI-8226 leukemia, with HL-60(TB) leukemia, with OVCAR-8 ovarian and with UACC-257 melanoma was over 100 µM throughout. For the same compound, the TGI in the experiment on SW-620 colon, in the experiment on SK-MEL-5 melanoma and in the experiment with IGROV1 ovarian was over 100 µM in each case.

For `COc1ccc(C(O)c2cc3c(N)c(C(=O)Nc4cccc(Br)c4C)sc3nc2C)cc1` (stereo not given), the GI50 is 0.0944 µM in the experiment with RXF 393 renal; 1.17 µM in the experiment on SK-MEL-2 melanoma; 0.167 µM in the experiment on RPMI-8226 leukemia; 0.104 µM in the experiment on HL-60(TB) leukemia; 0.287 µM in the experiment with HOP-62 NSCLC; 0.225 µM in the experiment on OVCAR-8 ovarian. The GI50 with UACC-257 melanoma was 0.307 µM; in the experiment on SW-620 colon, 0.124 µM; with SK-MEL-5 melanoma, 0.143 µM; with IGROV1 ovarian, 0.375 µM. Moreover, the TGI in the experiment with RXF 393 renal was 2.22 µM; in the experiment on SK-MEL-2 melanoma, over 33.3 µM; in the experiment with RPMI-8226 leukemia it was over 33.3 µM; in the experiment on HL-60(TB) leukemia, 2.34 µM; in the experiment on HOP-62 NSCLC, over 30.2 µM; in the experiment with OVCAR-8 ovarian, over 23 µM. Also, the TGI in the experiment on UACC-257 melanoma is over 33.3 µM; in the experiment on SW-620 colon, over 33.3 µM; in the experiment with SK-MEL-5 melanoma, 0.922 µM; in the experiment on IGROV1 ovarian, 18.8 µM.

Regarding `CCOC(=O)[C@@H]1CSC(CC)=C(C(=O)O)N1`, the GI50 in the experiment on RXF 393 renal, in the experiment with SK-MEL-2 melanoma, with RPMI-8226 leukemia, in the experiment with HL-60(TB) leukemia, in the experiment on HOP-62 NSCLC and in the experiment on OVCAR-8 ovarian was over 100 µM in each case. Moreover, the GI50 in the experiment with UACC-257 melanoma, in the experiment with SW-620 colon, with SK-MEL-5 melanoma and with IGROV1 ovarian was over 100 µM in each case. Further, the TGI in the experiment with RXF 393 renal, in the experiment on SK-MEL-2 melanoma, in the experiment with RPMI-8226 leukemia, in the experiment with HL-60(TB) leukemia, with HOP-62 NSCLC and in the experiment with OVCAR-8 ovarian was over 100 µM throughout. Besides, the TGI with UACC-257 melanoma, in the experiment on SW-620 colon, in the experiment with SK-MEL-5 melanoma and with IGROV1 ovarian was over 100 µM in each case.

As to `COc1ccc(/C=N/NS(=O)(=O)c2ccccc2)cc1`, the TGI with RXF 393 renal, with SK-MEL-2 melanoma, in the experiment on RPMI-8226 leukemia, in the experiment on HL-60(TB) leukemia, in the experiment on HOP-62 NSCLC and in the experiment on OVCAR-8 ovarian was over 100 µM throughout. For the same compound, the TGI in the experiment on UACC-257 melanoma, in the experiment with SW-620 colon, in the experiment with SK-MEL-5 melanoma and in the experiment with IGROV1 ovarian was over 100 µM throughout.

`CC1(C)C2CCC13C(=O)C1OC3(C2)C2C(=O)c3c(ccc4c3ccc3ccccc34)C(=O)C12` (stereo not given): the GI50 with RXF 393 renal is 84 µM; with SK-MEL-2 melanoma, over 100 µM; in the experiment on RPMI-8226 leukemia it was 19.2 µM; in the experiment with HOP-62 NSCLC, over 100 µM; in the experiment with OVCAR-8 ovarian it was over 61.1 µM; with UACC-257 melanoma, over 29.2 µM. Also, the GI50 in the experiment on SW-620 colon is 56.5 µM; in the experiment on SK-MEL-5 melanoma it was 54.3 µM; in the experiment on IGROV1 ovarian it was over 100 µM. Moreover, the TGI in the experiment on RXF 393 renal was over 100 µM; in the experiment with SK-MEL-2 melanoma, over 100 µM; with RPMI-8226 leukemia, over 60 µM; in the experiment on HL-60(TB) leukemia, 11.1 µM; in the experiment with HOP-62 NSCLC it was over 100 µM; in the experiment on OVCAR-8 ovarian it was over 100 µM. The TGI in the experiment on UACC-257 melanoma is over 70.5 µM; in the experiment on SW-620 colon it was over 100 µM; with SK-MEL-5 melanoma, over 100 µM; in the experiment with IGROV1 ovarian it was over 100 µM.

With `COc1cc(OC)c2c(=O)c3cccc([N+](=O)[O-])c3n(C)c2c1`, the TGI in the experiment with RXF 393 renal, in the experiment with SK-MEL-2 melanoma, with RPMI-8226 leukemia, with HL-60(TB) leukemia, in the experiment on OVCAR-8 ovarian and in the experiment on UACC-257 melanoma was over 100 µM in each case. Further, the TGI in the experiment with SW-620 colon, with SK-MEL-5 melanoma and in the experiment on IGROV1 ovarian was over 100 µM in each case.

As for `CCN(c1ccccc1)[C@H]1C(=O)N(c2ccc([N+](=O)[O-])cc2)[C@H]1c1ccc(OC)cc1`, the TGI with RXF 393 renal, in the experiment on SK-MEL-2 melanoma, in the experiment with RPMI-8226 leukemia, in the experiment on HL-60(TB) leukemia, in the experiment on OVCAR-8 ovarian and in the experiment with UACC-257 melanoma was over 100 µM in each case. The TGI in the experiment with SW-620 colon, in the experiment on SK-MEL-5 melanoma and in the experiment with IGROV1 ovarian was over 100 µM in each case.
